In brackets after ≈: the same amount, converted by molar mass.
What was measured:
[1] = molecular target: T1, recombinant LpxA enzyme (P. aeruginosa) (Pseudomonas aeruginosa, UniProt Q9X6P4); test: LpxA in vitro substrate acylation assay with RapidFire MS analysis (P. aeruginosa); type: biochemical; conditions: P. aeruginosa enzyme 0.5 nM, PaACP-C10, 30 min
T1 sequence (Q9X6P4 1-258): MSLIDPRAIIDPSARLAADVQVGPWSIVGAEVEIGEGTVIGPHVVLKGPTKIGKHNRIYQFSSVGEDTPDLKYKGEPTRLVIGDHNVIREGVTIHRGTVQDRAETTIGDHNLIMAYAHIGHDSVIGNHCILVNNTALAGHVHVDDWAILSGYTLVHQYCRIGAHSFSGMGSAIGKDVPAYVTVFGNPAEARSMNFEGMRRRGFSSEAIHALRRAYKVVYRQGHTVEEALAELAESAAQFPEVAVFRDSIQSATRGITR
Procedure: Exemplary compounds from the above Examples were tested for ability to inhibit LpxA activity using an in vitro substrate acylation assay with RapidFire™ MS analysis. Assay procedures and results are described below.
Reactions were carried out in a final volume of 30 μL with 25 mM HEPES (pH 7.3), 150 mM NaCl, 2 mM DTT, 0.01% BSA, 5 μM UDP-GlcNac, recombinant LpxA enzyme (0.5 nM P. aeruginosa or 1.0 nM E. coli, both produced at Evotec), 0.5 μM acyl-transfer reagent (decanoyl P. aeruginosa acyl-carrier protein [PaACP-C10] or myristoyl E. coli acyl-carrier protein [EcACP-C1-4], both produced at Evotec), and 1% DMSO containing test compound. After 30 min incubation at room temperature, reactions were stopped by addition of 30 μL of 10% TCA in water.
Samples were centrifuged (4350 rpm, 4° C., 5 min), and then subjected to RapidFire™ MS analysis on an Agilent RapidFire 300 coupled to an Agilent 6460 triple-quadrupole mass spectrometer. Analytes were retained on a C4 (type A) cartridge using the following solvents and flow rates: • Pump 1—H2O with 5 mM NH4OAc at 2.0 mL/min, • Pump 2—MeOH/H2O (90/10) at 1.5 mL/min, • Pump 3—MeOH/H2O (90/10) at 0.5 mL/min, and • Pump 4—ACN (organic)/H2O (aqueous). Substrate and product of the reaction were detected in negative mode ESI-MS/MS by MRM (multiple reaction monitoring) of transitions 606.0/385.0 (UDP-GlcNAc substrate) and 776.2/385.0 (UDP-3-O—(R-3-hydroxydecanoyl)-GlcNAc product, for P. aeruginosa LpxA assay) or 832.2/385.0 (UDP-3-O—(R-3-hydroxymyristoyl)-GlcNAc product, for E. coli LpxA assay).
For IC50 determinations, peak areas of the substrate and product were compared to compute the proportion of product formed by the LpxA enzyme at each compound concentration.

[2] = tested on: Wild-type P. aeruginosa PAO1; test: Broth microdilution MIC, wild-type P. aeruginosa PAO1; type: cell-based; conditions: Pseudomonas aeruginosa; wild-type P. aeruginosa PAO1, 37° C., 18 h; read-out: PAO1 WT MIC
Procedure: (§1) Exemplary compounds from the above Examples were tested to determine their minimum inhibitory concentration (MIC) for exemplary strains of Escherichia and Pseudomonas bacteria using broth microdilution methods. Assay procedures and results are described below.
(§2) Broth microdilution assays were conducted according to Clinical and Laboratory Standards Institute guidelines (CLSI, M07-A^11: Clinical and Laboratory Standards Institute. Methods for Dilution Antimicrobial Susceptibility Tests for Bacteria that Grow Aerobically; Approved Standard-11th Edition. Wayne, PA: CLSI, 2018). Briefly, bacterial suspensions were adjusted to a density equivalent to a 0.5 McFarland standard and diluted in sterile, cation-adjusted Mueller-Hinton broth (Beckton Dickinson) to yield a final inoculum between 2×10^5 and 8×10^5 colony-forming units (CFU)/mL. An inoculum volume of 98 μL was added to wells containing 2 μL of 2-fold serial dilutions of drug (prepared in DMSO). All inoculated microdilution trays were incubated in ambient air at 37° C. for 18 h. […] Performance of the assay was monitored by the use of laboratory quality-control strains (S. aureus ATCC 29213 and P. aeruginosa ATCC 27853) and levofloxacin, a compound with a defined MIC spectrum, in accordance with CLSI guidelines (CLSI, M100Ed29: Clinical and Laboratory Standards Institute. Performance Standards for Antimicrobial Susceptibility Testing, 29th Edition. Wayne, PA: CLSI, 2018).
(§3) Multiple enterobacteriaceae strains were tested, including both wild-type strains and multi-drug resistance pump deficient mutants. Specific strains tested included the following: • Wild-type P. aeruginosa PAO1, • P. aeruginosa PAO1 ΔmexABoprM—Disabled multi-drug efflux system Δ(MexAB-OprM), • P. aeruginosa PAO397—PAO1Δ(mexAB-oprM) Δ(mexCD-oprJ) Δ(mexEF-oprN) Δ(mexJK) Δ(mexXY) ΔopmH, • P. aeruginosa LESB58—Clinical isolate; colistin-resistant, isolated in the United Kingdom in 1988 from a patient with cystic fibrosis • E. coli JW0452-3 (BW25113 JacrA::kan)—Disabled multi-drug efflux system (AcrAB-TolC).
(§4) Experimental results are provided in Table 11, which provides MIC values for wild-type P. aeruginosa PAO1 (“PAO1 WT MIC”), P. aeruginosa PAO ΔmexABoprM (“PAO1 KO MIC”), P. aeruginosa PAO397 (“PAO397 KO MIC”), P. aeruginosa LESB58 (“LESB58”), and E. coli JW0452-3 (BW25113 JacrA::kan) (“E. coli KO MIC”).

[3] = tested on: P. aeruginosa PAO1 ΔmexABoprM; test: Broth microdilution MIC, P. aeruginosa PAO1 ΔmexABoprM; type: cell-based; conditions: Pseudomonas aeruginosa, PAO1, 18 h, read-out: PAO1 KO MIC
Procedure: as §1, §2, §3, §4

P. aeruginosa PAO397 = test: Broth microdilution MIC, P. aeruginosa PAO397; type: cell-based; conditions: Pseudomonas aeruginosa, PAO397, 18 h, read-out: PAO397 KO MIC
Procedure: as §1, §2, §3, §4

P. aeruginosa LESB58 = test: Broth microdilution MIC, P. aeruginosa LESB58; type: cell-based; conditions: Pseudomonas aeruginosa; P. aeruginosa LESB58 clinical isolate, colistin-resistant, 37° C., 18 h
Procedure: as §1, §2, §3, §4

Structure (SMILES) | IC50 [1] [nM] | MIC [2] [µg/mL] | MIC [3] [µg/mL] | MIC (P. aeruginosa PAO397) [µg/mL] | MIC (P. aeruginosa LESB58) [µg/mL]
N#Cc1ccc(CN(Cc2nnc(N)o2)C(=O)CSc2cccc(F)c2Cl)c(F)c1 [Compound No. 28, N-[(5-Amino-1,3,4-oxadiazol-2-yl)methyl]-2-(2-chloro-3-fluoro-phenyl)sulfanyl-N-[(4-cyano-2-fluoro-phenyl)methyl]acetamide] | < 20 | 16 to 64 (≈ 35.6 to 142 µM) | 1 to 16 (≈ 2.22 to 35.6 µM) | < 1 | –
N#Cc1ccc(CN(Cc2nnc(N)o2)C(=O)COc2cc(F)cc(F)c2Cl)c(F)c1 [Compound No. 31, N-[(5-Amino-1,3,4-oxadiazol-2-yl)methyl]-2-(2-chloro-3,5-difluoro-phenoxy)-N-[(4-cyano-2-fluoro-phenyl)methyl]acetamide] | – | > 64 | 1 to 16 (≈ 2.21 to 35.4 µM) | < 1 | 1 to 16 (≈ 2.21 to 35.4 µM)
N#Cc1ccc(CN(Cc2nnc(N)o2)C(=O)CSc2cc(OCCN)ccc2Cl)c(F)c1 [Compound No. 60, 2-[5-(2-Aminoethoxy)-2-chloro-phenyl]sulfanyl-N-[(5-amino-1,3,4-oxadiazol-2-yl)methyl]-N-[(4-cyano-2-fluoro-phenyl)methyl]acetamide] | 100 to 1000 | > 64 | 1 to 16 (≈ 2.04 to 32.6 µM) | < 1 | –
N#Cc1ccc(CN(Cc2nnc(N)o2)C(=O)CSc2cc(CCO)ccc2Cl)c(F)c1 [Compound No. 63, N-[(5-Amino-1,3,4-oxadiazol-2-yl)methyl]-2-[2-chloro-5-(2-hydroxyethyl)phenyl]sulfanyl-N-[(4-cyano-2-fluoro-phenyl)methyl]acetamide] | – | > 64 | 1 to 16 (≈ 2.1 to 33.6 µM) | < 1 | 16 to 64 (≈ 33.6 to 134 µM)
CCc1c(F)cc(F)cc1OCC(=O)N(Cc1nnc(N)o1)Cc1ccc(C#N)cc1F [Compound No. 64, N-[(5-Amino-1,3,4-oxadiazol-2-yl)methyl]-N-[(4-cyano-2-fluoro-phenyl)methyl]-2-(2-ethyl-3,5-difluoro-phenoxy)acetamide] | – | 16 to 64 (≈ 35.9 to 144 µM) | < 1 | < 1 | 1 to 16 (≈ 2.25 to 35.9 µM)
Cc1noc(CN(Cc2ccc(C#N)cc2)C(=O)CSc2ccccc2Cl)n1 [Compound No. 68, 2-(2-Chlorophenyl)sulfanyl-N-[(4-cyanophenyl)methyl]-N-[(3-methyl-1,2,4-oxadiazol-5-yl)methyl]acetamide] | 20 to 100 | > 64 | 16 to 64 (≈ 38.8 to 155 µM) | 1 to 16 (≈ 2.42 to 38.8 µM) | –
CCc1ccccc1SCC(=O)N(Cc1ccc(C#N)cc1)Cc1nnc(N)[nH]1 [Compound No. 70, N-[(5-Amino-4H-1,2,4-triazol-3-yl)methyl]-N-[(4-cyanophenyl)methyl]-2-(2-ethylphenyl)sulfanyl-acetamide] | 20 to 100 | > 64 | 1 to 16 (≈ 2.46 to 39.4 µM) | < 1 | –
N#Cc1ccc(CN(Cc2nnc(N)o2)C(=O)CSc2ccccc2Cl)c(F)c1 [compound 13] | – | 16 to 64 (≈ 37 to 148 µM) | 1 to 16 (≈ 2.32 to 37 µM) | < 1 | 1 to 16 (≈ 2.32 to 37 µM)
N#Cc1ccc(CN(Cc2nnc(N)o2)C(=O)CSc2ccccc2Cl)cn1 [compound 14] | – | > 64 | 1 to 16 (≈ 2.41 to 38.6 µM) | < 1 | 16 to 64 (≈ 38.6 to 154 µM)
Cc1ccccc1SCC(=O)N(Cc1ccc(C#N)nc1)Cc1nnc(N)o1 [compound 15] | 100 to 1000 | > 64 | 1 to 16 (≈ 2.54 to 40.6 µM) | 1 to 16 (≈ 2.54 to 40.6 µM) | –
N#Cc1ccc(CN(Cc2nnc(N)o2)C(=O)COc2cccc(Cl)c2)c(F)c1 [compound 20] | – | > 64 | 16 to 64 (≈ 38.5 to 154 µM) | 1 to 16 (≈ 2.4 to 38.5 µM) | > 64
N#Cc1cc(F)c(CN(Cc2nnc(N)o2)C(=O)CSc2cccc(F)c2Cl)c(F)c1 [compound 25] | – | 1 to 16 (≈ 2.14 to 34.2 µM) | 1 to 16 (≈ 2.14 to 34.2 µM) | < 1 | 1 to 16 (≈ 2.14 to 34.2 µM)
N#Cc1cc(F)c(CN(Cc2nnc(N)o2)C(=O)CSc2cc(F)cc(F)c2Cl)c(F)c1 [compound 26] | – | > 64 | < 1 | < 1 | 1 to 16 (≈ 2.06 to 32.9 µM)
N#Cc1ccc(CN(Cc2nnc(N)o2)C(=O)CSc2cc(F)ccc2Cl)c(F)c1 [compound 30] | < 20 | 16 to 64 (≈ 35.6 to 142 µM) | 1 to 16 (≈ 2.22 to 35.6 µM) | < 1 | –
N#Cc1ccc(CN(Cc2nnc(N)o2)C(=O)COc2ccccc2C(F)(F)F)cc1 [compound 33] | 20 to 100 | > 64 | 16 to 64 (≈ 37.1 to 148 µM) | < 1 | –
N#Cc1ccc(CN(Cc2nnc(N)o2)C(=O)COc2ccccc2Br)cc1 [compound 35] | 20 to 100 | > 64 | 1 to 16 (≈ 2.26 to 36.2 µM) | < 1 | –
CCc1ccccc1OCC(=O)N(Cc1nnc(N)o1)Cc1ccc(C#N)cc1F [compound 37] | – | > 64 | 1 to 16 (≈ 2.44 to 39.1 µM) | < 1 | 16 to 64 (≈ 39.1 to 156 µM)
CCc1ccc(F)cc1OCC(=O)N(Cc1nnc(N)o1)Cc1ccc(C#N)cc1F [compound 38] | – | 16 to 64 (≈ 37.4 to 150 µM) | 1 to 16 (≈ 2.34 to 37.4 µM) | < 1 | 16 to 64 (≈ 37.4 to 150 µM)
N#Cc1ccc(CN(Cc2nnc(N)o2)C(=O)COc2ccccc2OC(F)(F)F)c(F)c1 [compound 39] | – | > 64 | 16 to 64 (≈ 34.4 to 138 µM) | 1 to 16 (≈ 2.15 to 34.4 µM) | > 64
CCc1c(F)cccc1OCC(=O)N(Cc1nnc(N)o1)Cc1ccc(C#N)cc1F [compound 41] | – | > 64 | < 1 | < 1 | 1 to 16 (≈ 2.34 to 37.4 µM)
CCc1ccccc1SCC(=O)N(Cc1nnc(N)o1)Cc1ccc(C#N)cc1F [compound 42] | – | 16 to 64 (≈ 37.6 to 150 µM) | 1 to 16 (≈ 2.35 to 37.6 µM) | < 1 | 1 to 16 (≈ 2.35 to 37.6 µM)
N#Cc1ccc(CN(Cc2nnc(N)o2)C(=O)CSc2cc(CO)ccc2Cl)cc1 [compound 45] | 20 to 100 | > 64 | 1 to 16 (≈ 2.25 to 36 µM) | < 1 | –
N#Cc1ccc(CN(Cc2nnc(N)o2)C(=O)CSc2cccc(F)c2Cl)cc1 [compound 52] | – | > 64 | 1 to 16 (≈ 2.32 to 37 µM) | < 1 | 1 to 16 (≈ 2.32 to 37 µM)
N#Cc1ccc(CN(Cc2nnc(N)o2)C(=O)CSc2cc(F)cc(F)c2Cl)c(F)c1 [compound 55] | – | 1 to 16 (≈ 2.14 to 34.2 µM) | < 1 | < 1 | 1 to 16 (≈ 2.14 to 34.2 µM)
N#Cc1ccc(CN(Cc2nnc(N)o2)C(=O)CSc2ccccc2OC(F)(F)F)c(F)c1 [compound 56] | – | > 64 | 16 to 64 (≈ 33.2 to 133 µM) | < 1 | > 64

Reference: patent US20240166612A1, “ARYLTHIOETHER ACETAMIDE AND RELATED COMPOUNDS AND THEIR USE IN TREATING MEDICAL CONDITIONS” (X-Biotix Therapeutics, Inc., priority 2021, published 2024)
